Assay results: patent US20210315869A1, “COMPOUNDS AND METHODS FOR CSK MODULATION AND INDICATIONS THEREFOR” (Plexxikon Inc., priority 2020, published 2021)

What was measured:
CSK = molecular target: T1, CSK (Homo sapiens, UniProt P41240); assay: Human CSK enzymatic assay (AlphaScreen, Poly (Glu4-Tyr) substrate); assay type: biochemical; conditions: 100 uM ATP; read-out: CSK IC50 (μM) COFACTOR: 100 uM ATP
T1 construct: purchased Thermo Fisher
Description: This assay measures the ability of CSK to phosphorylate a biotinylated peptide containing multiple tyrosine residues in vitro. The CSK enzyme was purchased from Thermo Fisher. The biotinylated Poly (Glu4-Tyr) peptide substrate was purchased from Sigma-Aldrich. The CSK enzyme assay was performed using 0.75 ng CSK enzyme and 30 nM Poly (Glu4-Tyr) substrate in the presence of 25 mM Hepes pH 7.5, 5 mM Mg Acetate, 0.1% NP-40, 1 mM DTT, 0.01% BSA, and 100 μM ATP. A 19 μL volume of the above reaction mixture was added to wells of 384-well AlphaPlate (PerkinElmer GA, USA) containing 1 μL of various concentrations of test compound or DMSO vehicle and incubated for 60 minutes at room temperature. 16 wells containing all the components of reaction mixture and 5% DMSO serve as high control. 16 wells containing all the components except ATP of reaction mixture and 5% DMSO served as low control. The enzymatic reaction was stopped by the addition of 5 μL stop/detection mixture containing 25 mM Hepes pH 7.5 100 mM EDTA, and 5 μg/mL streptavidin-coated AlphaScreen donor beads (PerkinElmer GA, USA) and incubated for 20 minutes. A 5 μL mixture containing 25 mM Hepes pH 7.5, 100 mM EDTA, and 5 μg/mL anti-phosphotyrosine antibody PY20-coated AlphaScreen acceptor beads (PerkinElmer GA, USA) was added and the plate was incubated for 1 hour at room temperature. The streptavidin donor beads bind to the biotin moiety on the biotinylated Poly (Glu4-Tyr) substrate and the PY20 antibody-coated acceptor beads bind to tyrosine residues on the substrate that have been directly phosphorylated by CSK. Upon excitation of these beads with laser light at 680 nm, singlet oxygen was produced. This singlet oxygen was rapidly quenched, unless the AlphaScreen PY20 acceptor beads are in close proximity, in which case a proximity signal can be measured at 580 nm. In the presence of catalytic activity, there was a very strong proximity signal. Selective CSK inhibitors affect a decrease in this proximity signal through a decrease in phosphorylation of the Poly (Glu4-Tyr) substrate. The percentage of inhibition at individual concentrations relative to high and low controls was calculated. The data were analyzed by using nonlinear regression to generate IC50 values. Human LCK enzymatic assay

LCK = molecular target: T2, LCK (Homo sapiens, UniProt P06239); assay: Human LCK enzymatic assay (AlphaScreen, Poly (Glu4-Tyr) substrate); assay type: biochemical; conditions: 100 uM ATP; read-out: LCK IC50 (uM) COFACTOR: 100 uM ATP
T2 construct: purchased ProQinase
Description: This assay measures the ability of LCK to phosphorylate a biotinylated peptide containing multiple tyrosine residues in vitro. The LCK enzyme was purchased from ProQinase. The biotinylated Poly (Glu4-Tyr) peptide substrate was purchased from Sigma-Aldrich. The LCK enzyme assay was performed using 1 ng LCK enzyme and 30 nM Poly (Glu4-Tyr) substrate in the presence of 25 mM Hepes pH 7.5, 10 mM MnCl2, 50 mM NaCl, 0.01% Tween-20, 0.5 mM DTT, 0.01% BSA, and 100 μM ATP. A 19 μL volume of the above reaction mixture was added to wells of 384-well AlphaPlate (PerkinElmer GA, USA) containing 1 μL of various concentrations of test compound or DMSO vehicle and incubated for 40 minutes at 25° C. 16 wells containing all the components of reaction mixture and 5% DMSO served as high control. 16 wells containing all the components except ATP of reaction mixture and 5% DMSO served as low control. The enzymatic reaction was stopped by the addition of 5 μL stop/detection mixture containing 25 mM Hepes pH 7.5 100 mM EDTA, and 10 μg/mL streptavidin-coated AlphaScreen donor beads (PerkinElmer GA, USA) and incubated for 20 minutes. A 5 μL mixture containing 25 mM Hepes pH 7.5, 100 mM EDTA, and 10 μg/mL anti-phosphotyrosine antibody PY20-coated AlphaScreen acceptor beads (PerkinElmer GA, USA) was added and the plate was incubated for 1 hour at room temperature. The streptavidin donor beads bind to the biotin moiety on the biotinylated Poly (Glu4-Tyr) substrate and the PY20 antibody-coated acceptor beads bind to tyrosine residues on the substrate that have been directly phosphorylated by LCK. Upon excitation of these beads with laser light at 680 nm, singlet oxygen was produced. This singlet oxygen was rapidly quenched, unless the AlphaScreen PY20 acceptor beads are in close proximity, in which case a proximity signal can be measured at 580 nm. In the presence of catalytic activity, there was a very strong proximity signal. Selective LCK inhibitors affect a decrease in this proximity signal through a decrease in phosphorylation of the Poly (Glu4-Tyr) substrate. The percentage of inhibition at individual concentrations relative to high and low controls was calculated. The data were analyzed by using nonlinear regression to generate IC50 values.

Jurkat/NFAT-RE cells = assay: NFAT reporter assay (luciferase) in Jurkat/NFAT-RE cells; assay type: cell-based; conditions: Homo sapiens, 0.02 μg/mL anti-CD3 antibody OKT3, 3 hours, read-out: Jurkat EC50 (uM) Cell Assay: Reporter Cell Variant: NFAT response element
Description: To assess the ability of CSK inhibitors to activate LCK and stimulate signaling downstream of the T-cell receptor, an NFAT reporter assay was used for monitoring of LCK activation in cells through the activation of LCK-dependent signaling through a reporter assay. The Jurkat T-cell cell line was genetically engineered to express a luciferase reporter that is regulated by the NFAT-response element. (Clipstone, N. A., & Crabtree, G. R., Identification of calcineurin as a key signalling enzyme in T-lymphocyte activation, Nature, 357(6380), 695-697, 1992). Stimulation of the T-cell receptor with anti-CD3 antibody increases the expression of the luciferase reporter. To test the ability of CSK inhibitors to stimulate LCK and downstream T-cell signaling, the cells were stimulated with a suboptimal concentration of anti-CD3 ligand, to measure the ability of CSK inhibitors to increase luciferase expression.
This assay measures the signaling activity downstream of the T-cell receptor, specifically the ability of the NFAT transcription factor to be translocated to the nucleus and induce expression of a firefly luciferase gene. Jurkat/NFAT-RE cells stably expressing the NFAT reporter construct were purchased from BPS Bioscience. The assay was performed by plating 40,000 Jurkat/NFAT-RE cells in a 50 μL volume of serum-free growth media in a 96-well plate. Following an overnight incubation, the cells were treated with CSK inhibitors and 0.02 μg/mL anti-CD3 antibody OKT3 (BD Bioscience) for 3 hours at 37° C. High control wells were stimulated with DMSO and 5 μg/mL OKT3 to maximally stimulate the NFAT reporter, and low control wells were stimulated with DMSO and 0.02 μg/mL OKT3. Following the 3 hour incubation, the cells were assayed for viability using CellTiter-Fluor™ (Promega), and for luciferase expression using ONE-Glo™ (Promega). The ONE-Glo™ signal was normalized to the CellTiter-Fluor™ signal, and the percentage of NFAT activation relative to high and low controls was calculated. The data were analyzed by using nonlinear regression to generate EC50 values. Selective CSK inhibitors affect an increase in luciferase expression in the presence of low level stimulation of the T-cell receptor.

T2 sequence (P06239 whole entry): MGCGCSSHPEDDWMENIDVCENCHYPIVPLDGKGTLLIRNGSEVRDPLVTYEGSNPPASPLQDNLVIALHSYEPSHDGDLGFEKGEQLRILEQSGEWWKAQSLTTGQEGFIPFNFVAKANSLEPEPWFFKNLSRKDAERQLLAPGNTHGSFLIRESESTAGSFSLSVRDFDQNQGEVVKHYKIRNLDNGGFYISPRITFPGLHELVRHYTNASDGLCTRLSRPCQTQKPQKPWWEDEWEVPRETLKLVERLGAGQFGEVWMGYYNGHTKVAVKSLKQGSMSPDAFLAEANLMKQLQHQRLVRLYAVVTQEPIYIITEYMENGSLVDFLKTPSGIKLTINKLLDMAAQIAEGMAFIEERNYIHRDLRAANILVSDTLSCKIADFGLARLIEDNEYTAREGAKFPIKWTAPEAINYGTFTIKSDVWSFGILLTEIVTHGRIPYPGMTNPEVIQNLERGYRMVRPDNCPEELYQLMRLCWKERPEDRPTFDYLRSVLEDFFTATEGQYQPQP

| IC50 (CSK) [µM] | IC50 (LCK) [µM] | EC50 (Jurkat/NFAT-RE cells) [µM] | Structure (SMILES) |
| --- | --- | --- | --- |
| 0.001 to 0.5 | 0.001 to 0.5 | 0.001 to 0.5 | Nc1cc2c(cn1)cc(-c1c(F)ccc(NS(=O)(=O)c3ccc4ncsc4c3F)c1F)c(=O)n2CC1CC1 [P-0001, N-(3-(7-amino-1-(cyclopropylmethyl)-2-oxo-1,2-dihydro-1,6-naphthyridin-3-yl)-2,4-difluorophenyl)-7-fluorobenzo[d]thiazole-6-sulfonamide] |
| 0.001 to 0.5 | 0.5 to 5 | 0.001 to 0.5 | Nc1cc2c(cn1)cc(-c1c(F)ccc(NS(=O)(=O)c3cc4scnc4cc3F)c1F)c(=O)n2CC1CC1 [P-0002, N-(3-(7-amino-1-(cyclopropylmethyl)-2-oxo-1,2-dihydro-1,6-naphthyridin-3-yl)-2,4-difluorophenyl)-5-fluorobenzo[d]thiazole-6-sulfonamide] |
| 0.001 to 0.5 | 5 to 100 | 0.001 to 0.5 | Nc1cc2c(cn1)cc(-c1c(F)ccc(NS(=O)(=O)c3cc4scnc4cc3F)c1F)c(=O)n2CC(F)F [P-0003, N-(3-(7-amino-1-(2,2-difluoroethyl)-2-oxo-1,2-dihydro-1,6-naphthyridin-3-yl)-2,4-difluorophenyl)-5-fluorobenzo[d]thiazole-6-sulfonamide] |
| 0.001 to 0.5 | 5 to 100 | 0.5 to 5 | COCCn1c(=O)c(-c2c(F)ccc(NS(=O)(=O)c3cc4scnc4cc3F)c2F)cc2cnc(N)cc21 [P-0004, N-(3-(7-amino-1-(2-methoxyethyl)-2-oxo-1,2-dihydro-1,6-naphthyridin-3-yl)-2,4-difluorophenyl)-5-fluorobenzo[d]thiazole-6-sulfonamide] |
| 0.001 to 0.5 | 5 to 100 | 0.001 to 0.5 | CNc1cc2c(cn1)cc(-c1c(F)ccc(NS(=O)(=O)c3cc4scnc4cc3F)c1F)c(=O)n2CC1CC1 [P-0005, N-(3-(1-(cyclopropylmethyl)-7-(methylamino)-2-oxo-1,2-dihydro-1,6-naphthyridin-3-yl)-2,4-difluorophenyl)-5-fluorobenzo[d]thiazole-6-sulfonamide] |
| 0.001 to 0.5 | 5 to 100 | 0.5 to 5 | CC1(n2c(=O)c(-c3c(F)ccc(NS(=O)(=O)c4cc5scnc5cc4F)c3F)cc3cnc(N)cc32)CC1 [P-0006, N-(3-(7-amino-1-(1-methylcyclopropyl)-2-oxo-1,2-dihydro-1,6-naphthyridin-3-yl)-2,4-difluorophenyl)-5-fluorobenzo[d]thiazole-6-sulfonamide] |
| 0.001 to 0.5 | 5 to 100 | 0.5 to 5 | Nc1cc2[nH]c(=O)c(-c3c(F)ccc(NS(=O)(=O)c4cc5scnc5cc4F)c3F)cc2cn1 [P-0007, N-(3-(7-amino-2-oxo-1,2-dihydro-1,6-naphthyridin-3-yl)-2,4-difluorophenyl)-5-fluorobenzo[d]thiazole-6-sulfonamide] |
| 0.001 to 0.5 | 5 to 100 | 0.001 to 0.5 | Nc1cc2c(cn1)cc(-c1c(F)ccc(NS(=O)(=O)c3cc4scnc4cc3F)c1F)c(=O)n2C1CC1 [P-0008, N-(3-(7-amino-1-cyclopropyl-2-oxo-1,2-dihydro-1,6-naphthyridin-3-yl)-2,4-difluorophenyl)-5-fluorobenzo[d]thiazole-6-sulfonamide] |
| 0.001 to 0.5 | 5 to 100 | 0.5 to 5 | Nc1cc2c(cn1)cc(-c1c(F)ccc(NS(=O)(=O)c3cc4scnc4cc3F)c1F)c(=O)n2C1CC(F)(F)C1 [P-0009, N-(3-(7-amino-1-(3,3-difluorocyclobutyl)-2-oxo-1,2-dihydro-1,6-naphthyridin-3-yl)-2,4-difluorophenyl)-5-fluorobenzo[d]thiazole-6-sulfonamide] |
| 0.001 to 0.5 | 5 to 100 | 0.5 to 5 | O=c1c(-c2c(F)ccc(NS(=O)(=O)c3cc4scnc4cc3F)c2F)cc2cnc(NCCO)cc2n1CC1CC1 [P-0010, N-(3-(1-(cyclopropylmethyl)-7-((2-hydroxyethyl)amino)-2-oxo-1,2-dihydro-1,6-naphthyridin-3-yl)-2,4-difluorophenyl)-5-fluorobenzo[d]thiazole-6-sulfonamide] |
| 0.001 to 0.5 | 5 to 100 | 0.5 to 5 | COCCNc1cc2c(cn1)cc(-c1c(F)ccc(NS(=O)(=O)c3cc4scnc4cc3F)c1F)c(=O)n2CC1CC1 [P-0011, N-(3-(1-(cyclopropylmethyl)-7-((2-methoxyethyl)amino)-2-oxo-1,2-dihydro-1,6-naphthyridin-3-yl)-2,4-difluorophenyl)-5-fluorobenzo[d]thiazole-6-sulfonamide] |
| 0.001 to 0.5 | – | 0.001 to 0.5 | Nc1cc2c(cn1)cc(-c1c(F)ccc(NS(=O)(=O)c3ccc4ncsc4c3F)c1F)c(=O)n2C1CC1 [P-0027, N-(3-(7-amino-1-cyclopropyl-2-oxo-1,2-dihydro-1,6-naphthyridin-3-yl)-2,4-difluorophenyl)-7-fluorobenzo[d]thiazole-6-sulfonamide] |
| 5 to 100 | 5 to 100 | – | Cc1c(-c2cccc(NS(=O)(=O)c3cc4scnc4cc3F)c2F)c(=O)n(C2CC2)c2cc(N)ncc12 [P-0028, N-(3-(7-amino-1-cyclopropyl-4-methyl-2-oxo-1,2-dihydro-1,6-naphthyridin-3-yl)-2-fluorophenyl)-5-fluorobenzo[d]thiazole-6-sulfonamide] |
| 0.001 to 0.5 | 5 to 100 | – | Nc1cc2c(cn1)cc(-c1cccc(NS(=O)(=O)c3cc4scnc4cc3F)c1F)c(=O)n2C1CC1 [P-0029, N-(3-(7-amino-1-cyclopropyl-2-oxo-1,2-dihydro-1,6-naphthyridin-3-yl)-2-fluorophenyl)-5-fluorobenzo[d]thiazole-6-sulfonamide] |
